Source: paper PMC12267471, “Discovery of natural scaffolds as HER2 inhibitors for breast cancer: virtual screening, molecular dynamics, and biological characterization with selectivity profiling” (Scientific Reports, 2025)

Key:
[1] = system: HER2 protein in SKBR3 cells; experiment: Western blot of p-HER2 and t-HER2, SKBR3; assay type: cell-based, human; conditions: SKBR3, 10 µM, 72 h
Description: SKBR3 and BT-474 were plated in RPMI-1640 media, washed, and incubated for 72 h. They were lysed in cold lysis buffer, frozen, collected, sonicated, and centrifuged for 10 min under cooling. The stacking and resolving solutions for polyacrylamide gels were prepared using various solutions, including 30% acrylamide, 0.5 M Tris, 10% SDS, 10% Ammonium persulfate, and 0.005 mL TEMED in 3.4 mL water and 3.3 mL water respectively. The ReadyPrepTM protein extraction kit was used to extract total protein from samples. Protein concentration was determined using the Bradford Protein Assay Kit. Samples were mixed with Laemmli sample buffer, pH adjusted and boiled for five minutes at 95 °C before loading onto SDS-polyacrylamide gels. Proteins in each sample were mixed, boiled, and loaded onto SDS-polyacrylamide gels. They were separated using the SDS-PAGE method, using the TGX Stain-Free™ FastCast™ Acrylamide Kit and a Cleaver electrophoresis unit. Proteins were transferred from gels to PVDF membranes using transfer sandwiches. Filter paper, membrane, gel, and filter paper were stacked in a sandwich. Gels were blotted onto PVDF membranes via electrophoresis using a Bio-Rad Semi-dry Electroblotter for 30 min. […] The intensity of each band was quantitated using ImageLab.

BT-474 cells [2] = experiment: Transwell cell migration assay, BT-474; assay type: cell-based; conditions: Homo sapiens; BT-474, 3.5 µM, 24 h; read-out: inhibition of migration relative to vehicle-treated cells
Description: (§1) The in vitro transwell migration assay was conducted using an HTS-96 transwell permeable support chamber with 8 μm pores (Corning, USA) equipped with polyvinylpyrrolidone-free polycarbonate (PVPF) filters. […] The plate was incubated for 24 h at 37 °C. Then, the transwell inserts were incubated in the receiver plate with Calcein AM/cell dissociation solution at 37 °C in 5% CO2 incubator for 1 h, followed by measuring the fluorescence using a fluorescence plate reader with 485 nm excitation and 520 nm emission filter package. The relative fluorescence units were converted to cell count using a standard curve. The number of cells that moved to the lower side of the filter was used to assess migratory characteristics. The experiment in both cell lines was conducted in triplicate and data are presented as the mean ± SD.

BT-474 cells [3] = experiment: Annexin V-FITC/PI apoptosis detection, BT-474; assay type: cell-based, human; conditions: BT-474, 3.5 µM, 48 h
Description: To evaluate the induction of apoptosis, the translocation of phosphatidylserine to the outer cell membrane, as a hallmark of early apoptosis, was detected by the binding of annexin V, using the Annexin V-FITC Early Apoptosis Detection Kit (BD BioVision). Cells were seeded at a density of 5 × 10^5 cells per 100 mm culture plate and allowed to adhere overnight. […] At the end of the treatment period, cells were harvested by trypsinization, washed twice with ice-cold PBS, and resuspended in 500 µL of chilled 1X Annexin V Binding Buffer. To each sample, 5 µL of Annexin V-FITC conjugate and 5 µL of propidium iodide (PI, 50 µg/mL) were added. The cell suspensions were incubated for 5 minutes on ice in the dark to allow for staining.
Flow cytometric analysis was performed using excitation at 488 nm and emission at 530 nm for FITC detection (FL1 channel) and phycoerythrin emission settings for PI detection (FL2 channel). Data acquisition and analysis were facilitated by Cell Quest software (BD Biosciences), with dot plots divided into four quadrants to distinguish different cell populations: lower left (LL) for viable, non-apoptotic cells (negative for both annexin V and PI); lower right (LR) for early apoptotic cells (annexin V-positive, PI-negative); upper left (UL) for dead or necrotic cells (PI-positive, annexin V-negative); and upper right (UR) for late apoptotic cells (double-positive). All assays were conducted in triplicate to ensure reliability and reproducibility.

SKBR3 cells = experiment: Transwell cell migration assay, SKBR3; assay type: cell-based, human; conditions: SKBR3, 6.4 µM, 24 h
Description: as §1

BT-474 cells [4] = experiment: Cell cycle analysis by PI flow cytometry, BT-474; assay type: cell-based, human; conditions: BT-474, 3.5 µM, 24 h (control 59%)
Description: To evaluate liquiritin’s impact on cell cycle progression, a propidium iodide (PI)-based flow cytometry assay was performed using the Cell Cycle Analysis Kit (ab139418, Abcam) following the manufacturer’s protocol. BT-474 and SKBR3 cells were seeded into 100 mm culture plates at a density of 1 × 10^6 cells/plate in RPMI 1640 medium supplemented with 10% FBS and incubated overnight. To synchronize cells in the G1 phase, cultures were rinsed twice with PBS and maintained in serum-reduced medium (0.5% FBS) for 48 h. Synchronized cells were subsequently treated with liquiritin at concentrations equivalent to its respective IC50 values (determined via prior proliferation assays) in serum-free media for 24 h.
Post-treatment, cells were detached using trypsin, washed with ice-cold PBS, and fixed in 66% ethanol at 4 °C for 2 h. Fixed cells were rehydrated in PBS and stained with a freshly prepared PI solution (1 mg/mL PI, 5,500 U/mL RNase A in PBS) for 30 min at 4 °C in the dark. DNA content was quantified using a BD FACS Calibur flow cytometer (BD Biosciences, San Jose, CA), with 10,000 events analyzed per sample. Cell cycle phase distributions (G0/G1, S, G2/M) were calculated from histogram data generated by Cell Quest software (BD Biosciences). All assays were performed in triplicate to ensure reproducibility.

TYRO3 (RSE) = TYRO3 (RSE) (Homo sapiens, UniProt Q06418); experiment: SelectScreen Z'-LYTE kinase profiling; assay type: biochemical
TYRO3 (RSE), sequence (Q06418 41-890): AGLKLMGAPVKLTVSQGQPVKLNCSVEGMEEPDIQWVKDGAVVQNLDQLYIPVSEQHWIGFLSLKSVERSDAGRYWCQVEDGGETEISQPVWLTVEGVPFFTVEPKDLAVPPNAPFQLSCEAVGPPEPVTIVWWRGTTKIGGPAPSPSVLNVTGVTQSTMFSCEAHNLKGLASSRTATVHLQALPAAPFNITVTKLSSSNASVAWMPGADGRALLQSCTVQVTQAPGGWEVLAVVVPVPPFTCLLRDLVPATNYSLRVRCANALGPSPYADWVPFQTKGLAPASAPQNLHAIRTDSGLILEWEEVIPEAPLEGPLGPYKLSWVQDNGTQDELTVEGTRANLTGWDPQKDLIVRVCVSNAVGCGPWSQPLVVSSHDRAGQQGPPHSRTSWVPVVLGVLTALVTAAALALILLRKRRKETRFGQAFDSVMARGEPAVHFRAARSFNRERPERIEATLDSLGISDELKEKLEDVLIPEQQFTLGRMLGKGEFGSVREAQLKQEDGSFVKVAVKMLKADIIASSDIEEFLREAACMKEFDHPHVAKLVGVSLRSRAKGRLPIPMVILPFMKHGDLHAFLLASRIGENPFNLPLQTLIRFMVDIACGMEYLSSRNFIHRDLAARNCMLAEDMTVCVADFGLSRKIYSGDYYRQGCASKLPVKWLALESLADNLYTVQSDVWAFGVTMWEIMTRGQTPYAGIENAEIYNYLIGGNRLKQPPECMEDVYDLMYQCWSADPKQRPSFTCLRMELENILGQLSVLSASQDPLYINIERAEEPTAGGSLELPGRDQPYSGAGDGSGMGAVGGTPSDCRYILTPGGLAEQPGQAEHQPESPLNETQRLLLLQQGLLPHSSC
Description: (§2) Liquiritin was screened at 0.1 µM dose against a panel of 15 human kinases using SelectScreen® kinase profiling services offered by ThermoFisher Scientific™ (Madison, WI, USA). The percent inhibition of Liquiritin was assessed against each kinase in an automated high-throughput screening system using the time-resolved fluorescence resonance energy transfer Z´-LYTE™ kinase assay. Technology overview, protocols, and assay conditions are accessible at https://x.gd/UgBBB.

KDR (VEGFR2) = KDR (VEGFR2) (Homo sapiens, UniProt P35968); experiment: SelectScreen Z'-LYTE kinase profiling; assay type: biochemical
KDR (VEGFR2), sequence (P35968 20-1356): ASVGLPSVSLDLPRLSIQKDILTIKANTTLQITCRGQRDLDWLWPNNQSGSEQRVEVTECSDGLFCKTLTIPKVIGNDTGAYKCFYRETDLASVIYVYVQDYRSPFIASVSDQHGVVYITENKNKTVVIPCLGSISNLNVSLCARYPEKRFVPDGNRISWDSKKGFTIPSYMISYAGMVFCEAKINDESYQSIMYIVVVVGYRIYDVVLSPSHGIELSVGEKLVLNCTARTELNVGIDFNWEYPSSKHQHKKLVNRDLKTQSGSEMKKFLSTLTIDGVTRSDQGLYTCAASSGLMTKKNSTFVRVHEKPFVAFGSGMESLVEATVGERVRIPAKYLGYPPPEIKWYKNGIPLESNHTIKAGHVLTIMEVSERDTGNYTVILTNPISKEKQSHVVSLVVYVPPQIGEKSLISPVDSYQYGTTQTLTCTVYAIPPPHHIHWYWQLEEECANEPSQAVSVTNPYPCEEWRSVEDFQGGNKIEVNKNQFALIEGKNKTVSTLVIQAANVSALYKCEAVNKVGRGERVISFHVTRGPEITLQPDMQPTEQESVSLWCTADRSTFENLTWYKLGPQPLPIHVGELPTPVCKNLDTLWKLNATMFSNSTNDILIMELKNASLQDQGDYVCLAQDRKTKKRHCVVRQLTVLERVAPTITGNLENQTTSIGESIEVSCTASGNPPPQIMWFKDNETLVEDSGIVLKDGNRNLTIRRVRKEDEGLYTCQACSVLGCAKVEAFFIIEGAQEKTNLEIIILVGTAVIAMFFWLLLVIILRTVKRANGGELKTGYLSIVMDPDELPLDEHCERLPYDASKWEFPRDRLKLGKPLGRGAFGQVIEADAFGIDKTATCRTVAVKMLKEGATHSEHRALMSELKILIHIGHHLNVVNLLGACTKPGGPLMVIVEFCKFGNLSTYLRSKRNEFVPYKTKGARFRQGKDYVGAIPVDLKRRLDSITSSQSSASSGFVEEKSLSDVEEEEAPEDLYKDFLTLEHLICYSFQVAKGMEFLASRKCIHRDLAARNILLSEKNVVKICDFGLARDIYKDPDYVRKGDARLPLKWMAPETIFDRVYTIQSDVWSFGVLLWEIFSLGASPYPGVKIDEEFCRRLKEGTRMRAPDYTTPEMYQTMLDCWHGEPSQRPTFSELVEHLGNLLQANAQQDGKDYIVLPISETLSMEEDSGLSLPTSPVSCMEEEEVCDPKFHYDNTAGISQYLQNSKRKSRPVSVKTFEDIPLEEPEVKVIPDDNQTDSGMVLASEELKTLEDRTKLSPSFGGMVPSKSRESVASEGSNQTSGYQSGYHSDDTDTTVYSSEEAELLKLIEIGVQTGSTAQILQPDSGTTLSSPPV
Description: as §2

ERBB4 (HER4) = ERBB4 (HER4) (Homo sapiens, UniProt Q15303); experiment: SelectScreen Z'-LYTE kinase profiling; assay type: biochemical
ERBB4 (HER4), sequence (Q15303 26-1308): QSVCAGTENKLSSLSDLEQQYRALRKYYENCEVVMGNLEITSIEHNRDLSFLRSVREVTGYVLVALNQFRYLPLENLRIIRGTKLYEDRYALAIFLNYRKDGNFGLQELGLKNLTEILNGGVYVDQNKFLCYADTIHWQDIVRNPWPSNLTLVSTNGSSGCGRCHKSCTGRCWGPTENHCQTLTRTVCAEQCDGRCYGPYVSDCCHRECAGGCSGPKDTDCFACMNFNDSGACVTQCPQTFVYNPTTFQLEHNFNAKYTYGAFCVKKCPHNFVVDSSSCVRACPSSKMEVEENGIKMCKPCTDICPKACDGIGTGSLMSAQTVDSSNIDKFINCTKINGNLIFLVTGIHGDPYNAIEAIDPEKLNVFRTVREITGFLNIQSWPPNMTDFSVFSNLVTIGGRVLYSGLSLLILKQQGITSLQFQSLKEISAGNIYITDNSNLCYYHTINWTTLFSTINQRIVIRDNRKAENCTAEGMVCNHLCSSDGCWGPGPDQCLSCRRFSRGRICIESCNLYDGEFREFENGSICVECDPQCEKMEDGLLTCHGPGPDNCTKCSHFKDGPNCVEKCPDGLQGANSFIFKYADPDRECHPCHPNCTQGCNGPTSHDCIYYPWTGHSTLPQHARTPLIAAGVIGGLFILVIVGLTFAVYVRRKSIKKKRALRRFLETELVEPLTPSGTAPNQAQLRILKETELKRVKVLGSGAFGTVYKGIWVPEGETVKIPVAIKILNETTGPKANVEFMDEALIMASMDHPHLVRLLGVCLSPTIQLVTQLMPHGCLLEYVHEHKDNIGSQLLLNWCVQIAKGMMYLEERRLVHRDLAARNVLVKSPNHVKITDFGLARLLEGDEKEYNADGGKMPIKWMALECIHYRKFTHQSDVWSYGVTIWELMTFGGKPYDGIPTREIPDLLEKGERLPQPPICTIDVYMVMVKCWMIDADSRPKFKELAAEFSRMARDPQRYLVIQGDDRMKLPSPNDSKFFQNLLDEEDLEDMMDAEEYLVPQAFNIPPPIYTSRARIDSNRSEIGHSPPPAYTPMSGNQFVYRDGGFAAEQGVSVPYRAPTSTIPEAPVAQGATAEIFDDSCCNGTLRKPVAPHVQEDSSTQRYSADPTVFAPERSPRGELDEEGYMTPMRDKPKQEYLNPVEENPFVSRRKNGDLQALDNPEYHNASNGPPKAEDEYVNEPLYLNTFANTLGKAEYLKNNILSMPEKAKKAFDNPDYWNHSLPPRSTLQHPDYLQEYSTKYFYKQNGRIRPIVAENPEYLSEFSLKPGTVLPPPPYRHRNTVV
Description: as §2

FLT1 (VEGFR1) = FLT1 (VEGFR1) (Homo sapiens, UniProt P17948); experiment: SelectScreen Z'-LYTE kinase profiling; assay type: biochemical
FLT1 (VEGFR1), sequence (P17948 27-1338): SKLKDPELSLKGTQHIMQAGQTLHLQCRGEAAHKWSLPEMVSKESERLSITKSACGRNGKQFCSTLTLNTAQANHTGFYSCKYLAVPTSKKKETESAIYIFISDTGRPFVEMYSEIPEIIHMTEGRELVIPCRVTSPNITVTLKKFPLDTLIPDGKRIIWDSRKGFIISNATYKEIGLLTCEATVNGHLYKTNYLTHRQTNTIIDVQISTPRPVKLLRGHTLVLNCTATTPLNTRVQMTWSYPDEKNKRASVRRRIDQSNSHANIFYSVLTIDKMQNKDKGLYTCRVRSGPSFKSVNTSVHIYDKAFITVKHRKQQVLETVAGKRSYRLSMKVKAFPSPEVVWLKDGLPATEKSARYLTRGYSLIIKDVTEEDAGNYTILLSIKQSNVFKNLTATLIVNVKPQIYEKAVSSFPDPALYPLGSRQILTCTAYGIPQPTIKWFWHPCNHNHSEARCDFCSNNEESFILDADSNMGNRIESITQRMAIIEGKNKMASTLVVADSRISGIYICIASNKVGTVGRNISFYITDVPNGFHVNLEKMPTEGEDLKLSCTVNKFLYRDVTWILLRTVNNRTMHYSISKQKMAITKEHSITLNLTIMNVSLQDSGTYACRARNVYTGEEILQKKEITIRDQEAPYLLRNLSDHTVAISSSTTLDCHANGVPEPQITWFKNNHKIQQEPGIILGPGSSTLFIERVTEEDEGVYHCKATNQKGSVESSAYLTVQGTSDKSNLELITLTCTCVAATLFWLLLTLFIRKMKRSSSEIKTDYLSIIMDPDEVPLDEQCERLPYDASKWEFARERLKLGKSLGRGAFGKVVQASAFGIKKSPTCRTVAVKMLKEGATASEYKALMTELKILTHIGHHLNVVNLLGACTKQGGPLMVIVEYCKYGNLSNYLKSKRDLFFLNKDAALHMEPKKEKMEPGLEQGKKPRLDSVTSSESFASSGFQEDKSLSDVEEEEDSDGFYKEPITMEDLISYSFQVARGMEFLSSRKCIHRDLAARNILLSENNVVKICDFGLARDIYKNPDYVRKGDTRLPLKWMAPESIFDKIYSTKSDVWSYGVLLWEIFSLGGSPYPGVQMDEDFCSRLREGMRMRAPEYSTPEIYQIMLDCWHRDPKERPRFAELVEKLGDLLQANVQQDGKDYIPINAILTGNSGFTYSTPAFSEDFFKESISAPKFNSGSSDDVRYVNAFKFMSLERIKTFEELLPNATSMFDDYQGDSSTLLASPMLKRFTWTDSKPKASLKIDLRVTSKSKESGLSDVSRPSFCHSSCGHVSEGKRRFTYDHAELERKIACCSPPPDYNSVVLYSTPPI
Description: as §2

## O=C1C[C@@H](c2ccc(O[C@@H]3O[C@H](CO)[C@@H](O)[C@H](O)[C@H]3O)cc2)Oc2cc(O)ccc21 [Liquiritin]
[1]
  total expression levels of HER2 protein: comparable suppressive effects
[1]; vs vehicle
  HER2 phosphorylation: significantly inhibited HER2 phosphorylation
BT-474 cells [2]
  inhibition at 3.5 µM: ~76%
BT-474 cells [3]
  early apoptosis (Annexin V+/PI−) cells: 22.05%
  late apoptosis (Annexin V+/PI+) cells: 11.44%
  necrosis: 3.7%
SKBR3 cells
  reduction in migration: approximately 23%
BT-474 cells [4]
  proportion of cells in G1 phase: ~88%
TYRO3 (RSE)
  inhibition at 0.1 µM: 5%
KDR (VEGFR2)
  inhibition at 0.1 µM: 4%
ERBB4 (HER4)
  inhibition at 0.1 µM: > 80%
ERBB4 (HER4); 0.1 µM
  Mean inhibition (%): 88%
FLT1 (VEGFR1)
  inhibition at 0.1 µM: 2%
